A short description of series [1]: 1H NMR qualitative studies for free drug. Type of series: physicochemical. Particulars: D2O; drug peaks evident in CDCl3. Here is the method:
To determine the absence of free drug in the outer aqueous environment, qualitative studies were conducted. Qualitative proton nuclear magnetic resonance (NMR) studies were conducted with Varian 400 MHz NMR. Deuterated chloroform and water as solvent systems were used to resuspend the formulation and NMR studies were performed.

The nature of series [2]: Ocular tissue distribution of RX-10045 / RX-10008 (LC-MS/MS). Type of series: in vivo, rabbit. As to conditions: topical ocular RX-10045 formulations 4×/day for 5 days, rabbits. Here is the method:
A study was conducted in rabbits to test the tolerance and ocular tissue distribution of two nanomicellar formulations of compound 1001 (RX10045) against matching placebos (Table 7a and 7b) and balanced saline solution (BSS). Healthy New Zealand female white rabbits (2-3 kg) were used for this study. One drop (approximately 35 μL) of study drug was applied o.d. 4×/day at two hour intervals for 5 days. One drop of BSS was applied to the contralateral eye.
Selected ocular fluids/tissues (aqueous humor, vitreous humor, conjunctiva, cornea, iris-ciliary body, lens, retina/choroid, and sclera) collected from two rabbits each in the RX-10045 (0.15% in HCO-60, 0.1% in HCO-40) treatment groups, and from one rabbit in each of the matching placebo groups, were assayed for compound 1001 and another resolvin by liquid chromatography-tandem mass spectrometry (LC-MS/MS). Warfarin-d5 and 5-HDA were used as internal standards for the analysis of RX-10045 and its active metabolite, RX-10008, respectively, in aqueous humor and vitreous humor. For the other ocular tissues (solid tissues), warfarin-d5 and phenyl acetic acid-d5 (PAA-d5) were used as the internal standards for compound 1001 and RX-10008, respectively. The analytical range for the solid tissues were 0.125-100 ng. The results of the solid tissue analyses were converted to ng/g by correcting for the amount of tissue analyzed.

For `C#CC[C@@H](O)/C=C/C=C/C#C[C@@H](O)CCCC(=O)OC(C)C` [compound 1001], the “Free drug when MNF is resuspended in aqueous solution (qualitative proton NMR)” value in series [1] was “not freely available”. In series [2], the “Compound 1001 in the majority of ocular tissues” value was “either not detected or was below the quantitation limit of the assay”.

These data come from patent US20200009137A1, “TOPICAL FORMULATIONS AND USES THEREOF” (SUN PHARMA GLOBAL FZE, priority 2015, published 2020).
